Data as given in US8017612B2, “Piperazine compound and use thereof as a HCV polymerase inhibitor” (priority 2006, dated 2011).

How the values were obtained:
[1] = target: T1, HCV polymerase (NS5B) type 1b (Hepatitis C virus genotype 1b, UniProt P26663); experiment: Assay of enzyme (HCV polymerase) inhibitory activity, type 1b enzyme; type: biochemical, HCV BK strain (type 1b)
T1 construct: a region encoding NS5B (J Virol 1991 March, 65(3), 1105-13, 544 amino acids after deletion of 47 amino acids on the C-terminal); 6xHis (C); made in house; host or cells: Escherichia coli
Outline: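 NS5B from HCV BK strain (type 1b), C-terminal 47 aa deleted, C-terminal His6-tagged, E. coli-expressed, 0.5 μg/ml, with ~450 nt substrate RNA carrying the 3′ UTR (polyU, 3′X) at 5 μg/ml. Incubation 60 min at 25 °C with 50 μM ATP/GTP/CTP, 2 μM UTP plus [3H]UTP, pH 7.5 Tris.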

[2] = target: T2, HCV polymerase (NS5B) type 1a (Hepatitis C virus genotype 1a, UniProt P26664); experiment: Assay of enzyme (HCV polymerase) inhibitory activity, type 1a enzyme; type: biochemical, HCV type 1a (cloned from the blood of patients)
T2 construct: made in house; host or cells: Escherichia coli (by the 'similar method' of the 1b enzyme)
Outline: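 Patient-derived type 1a NS5B (C-terminal 47-aa deletion, His-tagged, E. coli-expressed) at 1.5 μg/ml was reacted with 5 μg/ml 3′UTR-containing substrate RNA, 50 μM ATP/GTP/CTP, 2 μM UTP plus [3H]UTP, pH 7.5, 25° C for 60 min. TCA-precipitated RNA radioactivity was counted; IC50 from ± compound.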

[3] = HCV polymerase inhibitory activity (IC50), 1b, type 1b enzyme 0.5 μg/ml, 25° C., 60 min
[4] = HCV polymerase inhibitory activity (IC50), 1a, type 1a enzyme 1.5 μg/ml, 25° C., 60 min
[5] = HCV polymerase inhibitory activity IC50, 1b, type 1b enzyme
[6] = HCV polymerase inhibitory activity IC50, 1a, type 1a enzyme

Compound: CC(C)c1ccc(CNC(=O)[C@H]2CN(C(=O)Nc3ccncc3)CCN2S(=O)(=O)c2ccc(C(F)(F)F)cc2)cc1 [Example 3, (R)-4-(4-trifluoromethyl-benzenesulfonyl)-piperazine-1,3-dicarboxylic acid 3-(4-isopropyl-benzylamide) 1-pyridin-4-ylamide]
- IC50 [1, 3]: < 100 nM
- IC50 [2, 4]: < 100 nM

Compound: CNC(=O)c1ncc2sc(N3CCN(S(=O)(=O)c4ccc(OC(F)(F)F)cc4)[C@@H](C(=O)NCc4ccc(OC(F)(F)F)cc4)C3)nc2n1 [Example 1046, 2-[(R)-4-(4-trifluoromethoxy-benzenesulfonyl)-3-(4-trifluoromethoxy-benzylcarbamoyl)-piperazin-1-yl]-thiazolo[4,5-d]pyrimidine-5-carboxylic acid methylamide]
- IC50 [1, 5]: < 100 nM
- IC50 [2, 6]: < 100 nM

Compound: COC(=O)c1cc(=O)nc2sc(N3CCN(S(=O)(=O)c4ccc(OC(F)(F)F)cc4)[C@@H](C(=O)NCc4ccc(OC(F)(F)F)cc4)C3)nn12 [Example 948, 7-oxo-2-[(R)-4-(4-trifluoromethoxy-benzenesulfonyl)-3-(4-trifluoromethoxy-benzylcarbamoyl)-piperazin-1-yl]-7H-[1,3,4]thiadiazolo[3,2-a]pyrimidine-5-carboxylic acid methyl ester]
- IC50 [1, 5]: < 100 nM
- IC50 [2, 6]: < 100 nM

Compound: CC(=O)N1CCN(S(=O)(=O)c2ccc(-c3ccccc3)cc2)C(C(=O)NCc2ccc(C(F)(F)F)cc2)C1 (centres unmarked) [Example 73, 4-acetyl-1-(biphenyl-4-sulfonyl)-piperazine-2-carboxylic acid 4-trifluoromethyl-benzylamide]
- IC50 [1, 3]: > 1000 nM
- IC50 [2, 4]: > 1000 nM

Compound: CC(=O)N1CCN(S(=O)(=O)c2ccc(C(C)C)cc2)C(C(=O)NCCCc2ccccc2)C1 (centres unmarked) [Example 145, 4-acetyl-1-(4-isopropyl-benzenesulfonyl)-piperazine-2-carboxylic acid (3-phenyl-propyl)-amide]
- IC50 [1, 3]: > 1000 nM
- IC50 [2, 4]: > 1000 nM

Compound: CC(=O)N1CCN(S(=O)(=O)c2ccc(C3CC3)cc2)[C@@H](C(=O)NCc2ccc(C(C)C)cc2)C1 [Example 400, (R)-4-acetyl-1-(4-cyclopropyl-benzenesulfonyl)-piperazine-2-carboxylic acid 4-isopropyl-benzylamide]
- IC50 [1, 3]: < 100 nM
- IC50 [2, 4]: < 100 nM

Compound: CCC(F)(F)c1ccc(CNC(=O)[C@H]2CN(C(=O)Cn3nnc(CC(=O)N4CCOCC4)n3)CCN2S(=O)(=O)c2ccc(OC(F)(F)F)cc2)cc1 [Example 543, (R)-4-{2-[5-(2-morpholin-4-yl-2-oxo-ethyl)-tetrazol-2-yl]-acetyl}-1-(4-trifluoromethoxy-benzenesulfonyl)-piperazine-2-carboxylic acid 4-(1,1-difluoro-propyl)-benzylamide]
- IC50 [1, 3]: < 100 nM
- IC50 [2, 4]: < 100 nM

Compound: COc1ccc(CNC(=O)[C@H]2CN(c3nc4nc(Cl)ncc4s3)CCN2S(=O)(=O)c2ccc(OC(F)(F)F)cc2)cc1 [Example 965, (R)-4-(5-chloro-thiazolo[4,5-d]pyrimidin-2-yl)-1-(4-trifluoromethoxy-benzenesulfonyl)-piperazine-2-carboxylic acid 4-methoxy-benzylamide]
- IC50 [1, 5]: < 100 nM
- IC50 [2, 6]: < 100 nM

Compound: CCC(F)(F)c1ccc(CNC(=O)[C@H]2CN(C(=O)NCC(=O)O)CCN2S(=O)(=O)c2ccc(OC(F)(F)F)cc2)cc1 [Example 677, {[(R)-3-[4-(1,1-difluoro-propyl)-benzylcarbamoyl]-4-(4-trifluoromethoxy-benzenesulfonyl)-piperazine-1-carbonyl]-amino}-acetic acid]
- IC50 [1, 5]: > 1000 nM
- IC50 [2, 6]: > 1000 nM

Compound: CCC(F)(F)c1ccc(CNC(=O)[C@H]2CN(c3cnc4cnccc4n3)CCN2S(=O)(=O)c2ccc([N+](=O)[O-])cc2)cc1 [Example 726, (R)-1-(4-nitro-benzenesulfonyl)-4-pyrido[3,4-b]pyrazin-2-yl-piperazine-2-carboxylic acid 4-(1,1-difluoro-propyl)-benzylamide]
- IC50 [1, 5]: < 100 nM
- IC50 [2, 6]: < 100 nM
